{"source": "patent US7786137B2", "about": "“Bicyclic derivatives as modulators of ion channels” (Vertex Pharmaceuticals Incorporated, priority 2005, dated 2010)"}
{"biological_target": "NaV1.3 (Homo sapiens, UniProt Q9NY46)", "sequence (Q9NY46 whole entry)": "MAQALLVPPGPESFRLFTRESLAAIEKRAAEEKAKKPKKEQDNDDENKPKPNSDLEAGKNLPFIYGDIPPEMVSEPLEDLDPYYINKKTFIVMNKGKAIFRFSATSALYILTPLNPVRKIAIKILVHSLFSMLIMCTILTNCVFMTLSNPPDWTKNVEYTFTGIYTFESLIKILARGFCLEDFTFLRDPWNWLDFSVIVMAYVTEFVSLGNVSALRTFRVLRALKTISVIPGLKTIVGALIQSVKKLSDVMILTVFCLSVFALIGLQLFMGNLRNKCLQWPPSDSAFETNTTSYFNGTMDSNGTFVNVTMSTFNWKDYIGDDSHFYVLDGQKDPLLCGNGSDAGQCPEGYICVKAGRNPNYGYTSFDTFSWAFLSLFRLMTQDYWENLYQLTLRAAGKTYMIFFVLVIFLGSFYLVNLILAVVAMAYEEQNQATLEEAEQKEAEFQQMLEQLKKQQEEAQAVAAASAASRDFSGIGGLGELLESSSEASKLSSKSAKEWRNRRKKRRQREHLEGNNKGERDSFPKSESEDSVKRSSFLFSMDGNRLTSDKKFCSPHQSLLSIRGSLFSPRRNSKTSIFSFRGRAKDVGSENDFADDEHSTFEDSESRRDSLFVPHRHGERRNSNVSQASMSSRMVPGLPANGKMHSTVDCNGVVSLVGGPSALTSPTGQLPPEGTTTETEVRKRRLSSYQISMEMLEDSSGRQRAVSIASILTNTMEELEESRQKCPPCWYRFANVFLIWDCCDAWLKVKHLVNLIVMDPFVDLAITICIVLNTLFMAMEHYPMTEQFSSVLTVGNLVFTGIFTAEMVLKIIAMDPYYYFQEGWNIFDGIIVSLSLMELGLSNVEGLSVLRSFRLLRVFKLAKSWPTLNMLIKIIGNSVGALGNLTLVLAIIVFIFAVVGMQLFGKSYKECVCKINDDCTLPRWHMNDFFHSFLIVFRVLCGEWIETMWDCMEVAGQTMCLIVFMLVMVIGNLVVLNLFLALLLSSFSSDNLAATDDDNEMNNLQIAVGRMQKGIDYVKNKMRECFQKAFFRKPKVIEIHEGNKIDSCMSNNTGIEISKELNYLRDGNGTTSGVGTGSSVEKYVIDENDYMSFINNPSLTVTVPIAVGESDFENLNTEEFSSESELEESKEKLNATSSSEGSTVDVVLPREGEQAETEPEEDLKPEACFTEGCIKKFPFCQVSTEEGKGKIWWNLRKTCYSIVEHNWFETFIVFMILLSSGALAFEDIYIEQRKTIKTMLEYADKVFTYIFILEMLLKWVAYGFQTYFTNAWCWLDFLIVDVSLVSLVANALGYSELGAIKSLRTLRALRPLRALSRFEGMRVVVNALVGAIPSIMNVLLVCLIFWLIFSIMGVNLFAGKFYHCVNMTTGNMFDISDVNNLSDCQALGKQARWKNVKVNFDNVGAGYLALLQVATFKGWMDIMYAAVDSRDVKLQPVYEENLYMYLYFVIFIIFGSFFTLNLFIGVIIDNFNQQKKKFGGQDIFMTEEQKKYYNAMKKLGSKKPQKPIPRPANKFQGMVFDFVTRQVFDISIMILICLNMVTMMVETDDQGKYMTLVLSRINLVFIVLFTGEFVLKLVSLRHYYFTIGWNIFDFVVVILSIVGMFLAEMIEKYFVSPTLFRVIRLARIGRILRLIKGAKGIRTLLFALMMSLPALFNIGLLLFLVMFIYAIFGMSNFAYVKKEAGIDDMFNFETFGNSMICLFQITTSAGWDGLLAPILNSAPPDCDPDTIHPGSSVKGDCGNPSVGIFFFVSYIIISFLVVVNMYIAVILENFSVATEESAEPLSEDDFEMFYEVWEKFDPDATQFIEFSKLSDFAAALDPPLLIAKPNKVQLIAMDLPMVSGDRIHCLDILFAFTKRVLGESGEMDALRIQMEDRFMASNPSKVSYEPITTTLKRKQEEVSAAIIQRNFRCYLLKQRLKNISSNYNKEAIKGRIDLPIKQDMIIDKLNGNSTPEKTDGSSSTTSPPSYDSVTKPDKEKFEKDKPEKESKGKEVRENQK", "test": "VIPR optical membrane potential assay, NaV1.3 inhibition", "assay_type": "cell-based", "set-up": "expressed in transfected cells; host or cells: HEK293", "details": "activity against NaV 1.3 channel", "experimental": "Antagonist properties of test compounds were assessed as follows. Cells expressing the NaV of interest were placed into microtiter plates. After an incubation period, the cells were stained with fluorescent dyes sensitive to the transmembrane potential. The test compounds were added to the microtiter plate. The cells were stimulated with either a chemical or electrical means to evoke a NaV dependent membrane potential change from unblocked channels, which was detected and measured with trans-membrane potential-sensitive dyes. Antagonists were detected as a decreased membrane potential response to the stimulus.\nThe following is an example of how NaV1.3 inhibition activity is measured using the optical membrane potential method#2. Other subtypes are performed in an analogous mode in a cell line expressing the NaV of interest.\nHEK293 cells stably expressing NaV1.3 are plated into 96-well microtiter plates. After an appropriate incubation period, the cells are stained with the voltage sensitive dyes CC2-DMPE/DiSBAC2(3) as follows.\n2× CC2-DMPE=20 μM CC2-DMPE: 10 mM CC2-DMPE is vortexed with an equivalent volume of 10% pluronic, followed by vortexing in required amount of HBSS containing 10 mM HEPES. Each cell plate will require 5 mL of 2× CC2-DMPE. 50 μL of 2× CC2-DMPE is to wells containing washed cells, resulting in a 10 μM final staining concentration. The cells are stained for 30 minutes in the dark at RT.\n2× DISBAC2(3) with ABSC1=6 μM DISBAC2(3) and 1 mM ABSC1: The required amount of 10 mM DISBAC2(3) is added to a 50 ml conical tube and mixed with 1 μL 10% pluronic for each mL of solution to be made and vortexed together. Then HBSS/HEPES is added to make up 2× solution. Finally, the ABSC1 is added.\nThe 2× DiSBAC2(3) solution can be used to solvate compound plates. Note that compound plates are made at 2× drug concentration. Wash stained plate again, leaving residual volume of 50 μL. Add 50 μL/well of the 2× DiSBAC2(3) w/ABSC1. Stain for 30 minutes in the dark at RT.\nThe instrument comprises a microtiter plate handler, an optical system for exciting the coumarin dye while simultaneously recording the coumarin and oxonol emissions, a waveform generator, a current- or voltage-controlled amplifier, and a device for inserting electrodes in well. Under integrated computer control, this instrument passes user-programmed electrical stimulus protocols to cells within the wells of the microfilter plate.\nInsert or use electrodes into each well to be assayed.\nUse the current-controlled amplifier to deliver stimulation wave pulses for 3 s. Two seconds of pre-stimulus recording are performed to obtain the un-stimulated intensities. Five seconds of post-stimulation recording are performed to examine the relaxation to the resting state.\nData are analyzed and reported as normalized ratios of background-subtracted emission intensities measured in the 460 nm and 580 nm channels. Background intensities are then subtracted from each assay channel. Background intensities are obtained by measuring the emission intensities during the same time periods from identically treated assay wells in which there are no cells. The response as a function of time is then reported as the ratios obtained using the following formula: […]\nThe data is further reduced by calculating the initial (Ri) and final (Rf) ratios. These are the average ratio values during part or all of the pre-stimulation period, and during sample points during the stimulation period. The response to the stimulus ? =Rf/Ri is then calculated.\nControl responses are obtained by performing assays in the presence of a compound with the desired properties (positive control), such as tetracaine, and in the absence of pharmacological agents (negative control). Responses to the negative (N) and positive (P) controls are calculated as above. The compound antagonist activity A is defined as:\n[formula] where R is the ratio response of the test compound.", "units": {"IC50": "nM"}}
{"smiles": "O=C(Cc1ccc(OC(F)(F)F)cc1)N1CCc2cc(S(=O)(=O)Nc3nccs3)ccc21", "note": "[Compound 51]", "IC50": "< 2000"}
{"smiles": "O=C(Cn1ccc2cccc(Cl)c21)N1Cc2ccc(S(=O)(=O)Nc3ccncn3)cc2C1", "note": "[Compound 56]", "IC50": "< 2000"}
{"smiles": "COc1ccc(NCCN2CCc3cc(S(=O)(=O)Nc4nccs4)ccc32)cc1", "note": "[Compound 100]", "IC50": "> 5000"}
{"smiles": "O=C(Cc1c(Cl)cccc1Cl)N1CCc2cc(S(=O)(=O)Nc3nccs3)ccc21", "note": "[Compound 136]", "IC50": "< 2000"}
{"smiles": "O=C(COc1ccc(F)c(Cl)c1)N1CCCc2cc(S(=O)(=O)Nc3ncns3)ccc21", "note": "[Compound 36]", "IC50": "2000 to 5000"}
{"smiles": "CC(C)(Oc1ccc(Cl)cc1)C(=O)n1ccc2cc(S(=O)(=O)Nc3nccs3)ccc21", "note": "[Compound 173]", "IC50": "2000 to 5000"}
{"smiles": "O=C(c1cc(F)ccc1F)N1CCc2ccc(S(=O)(=O)Nc3nccs3)cc2C1", "note": "[Compound 74]", "IC50": "> 5000"}
{"smiles": "Cc1ccc(OCC(=O)N2CCc3ccc(S(=O)(=O)Nc4nccs4)cc3C2)c(C)c1", "note": "[Compound 16]", "IC50": "< 2000"}
{"smiles": "O=S(=O)(Nc1nccs1)c1ccc2c(c1)CCN2CCNc1nc2ccccc2s1", "note": "[Compound 157]", "IC50": "> 5000"}
{"smiles": "COc1ccc(NCC(=O)N2CCc3cc(S(=O)(=O)Nc4nccs4)ccc32)cc1F", "note": "[Compound 184]", "IC50": "> 5000"}
{"smiles": "O=C(COc1ccc(F)c(Cl)c1)N1CCc2cc(S(=O)(=O)Nc3nccs3)ccc21", "note": "[Compound 30]", "IC50": "< 2000"}
{"smiles": "O=C(c1ccc(Cl)cc1Cl)N1CCc2ccc(S(=O)(=O)Nc3nccs3)cc2C1", "note": "[Compound 151]", "IC50": "2000 to 5000"}
{"smiles": "O=C(CNC1CCCCC1)N1CCc2cc(S(=O)(=O)Nc3nccs3)ccc21", "note": "[Compound 104]", "IC50": "> 5000"}
{"smiles": "Cc1ccc(OCC(=O)N2CCc3ccc(S(=O)(=O)Nc4nccs4)cc3C2)cc1", "note": "[Compound 25]", "IC50": "> 5000"}
{"smiles": "O=C(CCCOc1ccc(Cl)cc1Cl)N1CCc2cc(S(=O)(=O)Nc3ncccn3)ccc21", "note": "[Compound 156]", "IC50": "> 5000"}
{"smiles": "O=C(Cn1ccc2cccc(Cl)c21)N1CCc2ccc(S(=O)(=O)Nc3nccs3)cc2C1", "note": "[Compound 69]", "IC50": "> 5000"}
{"smiles": "O=C(CCc1ccccc1)N1CCc2cc(S(=O)(=O)Nc3nccs3)ccc21", "note": "[Compound 197]", "IC50": "< 2000"}
{"smiles": "O=C(c1ccccc1Cl)N1CCc2cc(S(=O)(=O)Nc3nccs3)ccc21", "note": "[Compound 40]", "IC50": "> 5000"}
{"smiles": "O=C(c1ccc(F)cc1)N1CCCc2cc(S(=O)(=O)Nc3nccs3)ccc21", "note": "[Compound 114]", "IC50": "> 5000"}
{"smiles": "Cc1nnc(NS(=O)(=O)c2ccc3c(c2)CN(C(=O)[C@@H](C)N2CCCc4cc(Cl)ccc42)C3)s1", "note": "[Compound 98]", "IC50": "2000 to 5000"}
{"smiles": "Cc1cccc(C)c1OCC(=O)N1CCc2cc(S(=O)(=O)Nc3nccs3)ccc21", "note": "[Compound 138]", "IC50": "< 2000"}
{"smiles": "CC1CCCN(CC(=O)N2CCc3cc(S(=O)(=O)Nc4nccs4)ccc32)C1", "note": "(centres unmarked) [Compound 75]", "IC50": "> 5000"}
{"smiles": "COc1ccc(CC(=O)N2CCc3cc(S(=O)(=O)Nc4nccs4)ccc32)cc1", "note": "[Compound 5]", "IC50": "< 2000"}
{"smiles": "O=C(COc1ccc(F)c(Cl)c1)N1Cc2ccc(S(=O)(=O)Nc3nccs3)cc2C1", "note": "[Compound 27]", "IC50": "< 2000"}
{"smiles": "COc1cccc(CCC(=O)n2ccc3cc(S(=O)(=O)Nc4nccs4)ccc32)c1", "note": "[Compound 18]", "IC50": "< 2000"}
{"smiles": "Cc1ccc(CC(=O)N2CCc3cc(S(=O)(=O)Nc4nccs4)ccc32)cc1", "note": "[Compound 26]", "IC50": "< 2000"}
{"smiles": "Cc1ccc(OCC(=O)N2CCc3cc(S(=O)(=O)Nc4nccs4)ccc32)c(C)c1", "note": "[Compound 60]", "IC50": "< 2000"}
{"smiles": "COc1cc(C(=O)n2ccc3cc(S(=O)(=O)Nc4nccs4)ccc32)ccc1C", "note": "[Compound 55]", "IC50": "2000 to 5000"}
{"smiles": "O=C(CNc1cc(F)ccc1F)N1CCc2cc(S(=O)(=O)Nc3nccs3)ccc21", "note": "[Compound 61]", "IC50": "< 2000"}
{"smiles": "Cc1ccc(C(=O)N2CCc3cc(S(=O)(=O)Nc4nccs4)ccc32)cc1", "note": "[Compound 7]", "IC50": "2000 to 5000"}
{"smiles": "O=C(COc1ccccc1)N1CCCc2cc(S(=O)(=O)Nc3ncns3)ccc21", "note": "[Compound 72]", "IC50": "> 5000"}
{"smiles": "O=C(COc1ccc(F)cc1)N1Cc2ccc(S(=O)(=O)Nc3nccs3)cc2C1", "note": "[Compound 115]", "IC50": "< 2000"}
{"smiles": "Cc1ccccc1CC(=O)N1CCc2cc(S(=O)(=O)Nc3nccs3)ccc21", "note": "[Compound 107]", "IC50": "< 2000"}
{"smiles": "Cc1ccc(OCC(=O)N2Cc3ccc(S(=O)(=O)Nc4nccs4)cc3C2)cc1C", "note": "[Compound 190]", "IC50": "< 2000"}
{"smiles": "O=C(CN1CCc2ccccc2C1)N1CCCc2cc(S(=O)(=O)Nc3nccs3)ccc21", "note": "[Compound 15]", "IC50": "2000 to 5000"}
{"smiles": "O=C(CN1CCCc2cc(Cl)ccc21)N1Cc2ccc(S(=O)(=O)Nc3ncns3)cc2C1", "note": "[Compound 120]", "IC50": "< 2000"}
{"smiles": "O=C(COc1ccc(F)c(Cl)c1)N1CCCc2cc(S(=O)(=O)Nc3nccs3)ccc21", "note": "[Compound 154]", "IC50": "< 2000"}
{"smiles": "Cc1ccc(C(=O)N2CCc3cc(S(=O)(=O)Nc4nccs4)ccc32)cc1Cl", "note": "[Compound 82]", "IC50": "< 2000"}
{"smiles": "CC(C(=O)n1ccc2cc(S(=O)(=O)Nc3nccs3)ccc21)n1ccc2ccccc21", "note": "(centres unmarked) [Compound 201]", "IC50": "> 5000"}
{"smiles": "C[C@@H](C(=O)N1Cc2ccc(S(=O)(=O)Nc3ncns3)cc2C1)n1ccc2c(F)cccc21", "note": "[Compound 124]", "IC50": "< 2000"}
{"smiles": "O=C(COc1ccc(OC(F)(F)F)cc1)N1CCc2cc(S(=O)(=O)Nc3ncns3)ccc21", "note": "[Compound 167]", "IC50": "< 2000"}
{"smiles": "O=C(Oc1ccc(Cl)cc1)N1CCc2cc(S(=O)(=O)Nc3nccs3)ccc21", "note": "[Compound 117]", "IC50": "> 5000"}
{"smiles": "Cc1ccc(F)c(C(=O)n2ccc3cc(S(=O)(=O)Nc4nccs4)ccc32)c1", "note": "[Compound 195]", "IC50": "2000 to 5000"}
{"smiles": "CC(Oc1ccccc1Cl)C(=O)N1CCc2cc(S(=O)(=O)Nc3ncns3)ccc21", "note": "(centres unmarked) [Compound 185]", "IC50": "< 2000"}
{"smiles": "O=C(COc1ccnc2c(C(F)(F)F)cccc12)N1CCc2cc(S(=O)(=O)Nc3nccs3)ccc21", "note": "[Compound 194]", "IC50": "< 2000"}
{"smiles": "O=S(=O)(Nc1nccs1)c1ccc2c(c1)CCN2CCNc1cnc2ccccc2c1", "note": "[Compound 22]", "IC50": "> 5000"}
{"smiles": "O=C(COc1cccc(Cl)c1)N1CCc2cc(S(=O)(=O)Nc3nccs3)ccc21", "note": "[Compound 131]", "IC50": "< 2000"}
{"smiles": "O=C(CCc1ccccc1)n1ccc2cc(S(=O)(=O)Nc3nccs3)ccc21", "note": "[Compound 189]", "IC50": "< 2000"}
{"smiles": "O=C(CN1CCCc2cc(Cl)ccc21)N1Cc2ccc(S(=O)(=O)Nc3ccncn3)cc2C1", "note": "[Compound 37]", "IC50": "2000 to 5000"}
{"smiles": "COc1cccc(CC(=O)N2CCc3cc(S(=O)(=O)Nc4ncns4)ccc32)c1", "note": "[Compound 31]", "IC50": "< 2000"}
{"smiles": "COc1ccc(CCC(=O)n2ccc3cc(S(=O)(=O)Nc4nccs4)ccc32)cc1", "note": "[Compound 187]", "IC50": "< 2000"}
{"smiles": "O=C(COc1ccc(F)cc1)N1CCc2cc(S(=O)(=O)Nc3nccs3)ccc21", "note": "[Compound 14]", "IC50": "< 2000"}
{"smiles": "O=C(COc1ccnc2c(C(F)(F)F)cccc12)N1CCc2cc(S(=O)(=O)Nc3ncns3)ccc21", "note": "[Compound 71]", "IC50": "< 2000"}
{"smiles": "Cc1ccc(OCC(=O)N2CCc3cc(S(=O)(=O)Nc4nccs4)ccc32)cc1", "note": "[Compound 181]", "IC50": "< 2000"}
{"smiles": "O=C(COc1ccccc1Cl)N1CCc2ccc(S(=O)(=O)Nc3nccs3)cc2C1", "note": "[Compound 149]", "IC50": "< 2000"}
{"smiles": "O=C(CNc1ccc(C(F)(F)F)cc1)N1CCc2cc(S(=O)(=O)Nc3nccs3)ccc21", "note": "[Compound 68]", "IC50": "2000 to 5000"}
{"smiles": "O=C(COc1ccc(Cl)cc1)N1CCc2ccc(S(=O)(=O)Nc3nccs3)cc2C1", "note": "[Compound 23]", "IC50": "> 5000"}
{"smiles": "O=C(CCn1ccc2cc(Cl)ccc21)N1CCc2ccc(S(=O)(=O)Nc3nccs3)cc2C1", "note": "[Compound 121]", "IC50": "< 2000"}
{"smiles": "Cc1cccc(CC(=O)N2CCc3cc(S(=O)(=O)Nc4nccs4)ccc32)c1", "note": "[Compound 43]", "IC50": "< 2000"}
{"smiles": "COc1ccc(F)cc1C(=O)N1CCc2cc(S(=O)(=O)Nc3nccs3)ccc21", "note": "[Compound 83]", "IC50": "2000 to 5000"}
{"smiles": "CC(Oc1ccc(OC(F)(F)F)cc1)C(=O)N1Cc2ccc(S(=O)(=O)Nc3nccs3)cc2C1", "note": "(centres unmarked) [Compound 186]", "IC50": "< 2000"}
{"smiles": "Cc1ccc(C(=O)n2ccc3cc(S(=O)(=O)Nc4nccs4)ccc32)cc1F", "note": "[Compound 128]", "IC50": "< 2000"}
